According to US7205298B2, “Substituted triazine kinase inhibitors” (Janssen Pharmaceutica N.V., priority 2002, dated 2007):

What was measured:
[1] = molecular target: T1, CDK1:Cyclin-B (Homo sapiens, UniProt P06493); test: CDK1 Screening Assay; format: biochemical
T1 construct: purchased New England Biolabs 6020; host or cells: insect cells
Procedure: A kinase reaction mixture was prepared containing 50 mM Tris-HCl pH=8, 10 mM MgCl2, 0.1 mM Na3PO4, 1 mM DTT, 10 μM ATP, 0.025 μM biotinylated histone-H1 peptide substrate (also referred to herein as a CDK-1 peptide substrate, see substrate table) and 0.2 μCuries per well ^33P-γ-ATP (2000–3000 Ci/mmol). 70 μL of the kinase reaction mixture was dispensed into the well of a streptavidin coated FlashPlate™ (Cat. # SMP 103, NEN, Boston, Mass.). Then 1 μL of test compound stock in 100% DMSO was added to the wells resulting in a final concentration of 1% DMSO in the reaction with a 100 μl final reaction volume. Next, CDK1:Cyclin-B protein (New England Biolads, infra) was diluted in 50 mM Tris-HCl pH=8.0, 0.1% BSA at a concentration of 1 ng per μL and 30 μl (30 ng enzyme per test well) was added to each well to initiate the reaction. The reaction was incubated for one hour at 30° C. At the end of the 1-hour incubation, the reaction was terminated by aspirating the reaction mixture from the plate and washing the wells twice with PBS containing 100 mM EDTA. The histone-H1 biotinylated peptide substrate became immobilized on the Flashplate™ (Perkin Elmer, NEN Boston, Mass.) and the incorporation of ^33P-γ-ATP was measured by reading the plate on a scintillation counter. Inhibition of the enzymatic activity of CDK1 was measured by observing a reduced amount of ^33P-γ-ATP incorporated into the immobilized peptide.
Assays to test compound inhibition of other kinases were preformed using methods that measure the amount of phosphorylation of a biotinylated peptide substrate. Biotinylated peptide substrates were selected from the literature as appropriate for the enzyme being evaluated. The general procedure used to assay for kinase activity is as follows: a kinase reaction mix was prepared in 50 mM Tris-HCl pH=8, 10 mM MgCl2, 0.1 mM Na3VO4, 1 mM DTT, 10 μM ATP, 0.25–1 μM biotinylated peptide substrate, 0.2–0.8 μCuries per well ^33P-γ-ATP (2000–3000 Ci/mmol). Assay conditions vary slightly for each protein kinase, for example, insulin receptor kinase requires 10 mM MnCl2 for activity and Calmodulin-dependent protein kinase requires calmodulin and 2 mM CaCl2. The reaction mixture was dispensed into the wells of a streptavidin coated Flashplate and 1 μL test compound in 100% DMSO was added to a 100 μL reaction volume resulting in a final concentration of 1% DMSO in the reaction. Enzyme was diluted in 50 mM Tris-HCl pH=8.0, 0.1% BSA and added to each well. The reaction was incubated for one hour at 30° C. in the presence of a test compound. After one hour the reaction mix was aspirated from the plate and the plate was washed with PBS containing 100 mM EDTA. The plate was read on a scintillation counter to determine ^33P-γ-ATP incorporated into the immobilized peptide substrate. Test compounds were assayed in duplicate at 8 concentrations (100 μM, 10 μM, 1 μM, 100 nM, 10 nM, 1 nM, 100 pM, 10 pM). A maximum and minimum signal for the assay was determined on each plate. […] Known inhibitor compounds appropriate for the kinase being assayed were also included on each plate.
The form of VEGF-R (vascular endothelial growth factor receptor-2) used was a fusion protein containing a polyhistidine tag at the N-terminus followed by amino acids 786–1343 of the rat VEGF-R2 kinase domain (GenBank Accession #U93306). The form of CDK1 (cyclin dependent kinase 1) used was isolated from insect cells expressing both the human CDK1 catalytic subunit and its positive regulatory subunit cyclin B (CDK1:cyclin B protein, New England Biolabs, Beverly, Mass., Cat. #6020). The form of CDK4 (cyclin dependent kinase 4) used contains amino acids 769 to 921 of the mouse […] protein found in the GST-retinoblastoma protein construct (Santa Cruz Biotechnology, Santa Cruz, Calif.; Cat. #SC-4112). The form of EGF-R1 (epidermal growth factor receptor 1) used was purified from human A431 cell membranes (Sigma, St. Louis, Mo., Cat.# E3641). […]

[2] = molecular target: T2, Insulin Receptor Kinase (Homo sapiens, UniProt P06213); test: Kinase selectivity assay Insulin Receptor Kinase; format: biochemical
T2 construct: consists of residues 941–1313 of the cytoplasmic domain of the beta-subunit of the human insulin receptor; purchased BIOMOL SE-195
Procedure: Assays to test compound inhibition of other kinases were preformed using methods that measure the amount of phosphorylation of a biotinylated peptide substrate. Biotinylated peptide substrates were selected from the literature as appropriate for the enzyme being evaluated. The general procedure used to assay for kinase activity is as follows: a kinase reaction mix was prepared in 50 mM Tris-HCl pH=8, 10 mM MgCl2, 0.1 mM Na3VO4, 1 mM DTT, 10 μM ATP, 0.25–1 μM biotinylated peptide substrate, 0.2–0.8 μCuries per well ^33P-γ-ATP (2000–3000 Ci/mmol). Assay conditions vary slightly for each protein kinase, for example, insulin receptor kinase requires 10 mM MnCl2 for activity and Calmodulin-dependent protein kinase requires calmodulin and 2 mM CaCl2. The reaction mixture was dispensed into the wells of a streptavidin coated Flashplate and 1 μL test compound in 100% DMSO was added to a 100 μL reaction volume resulting in a final concentration of 1% DMSO in the reaction. Enzyme was diluted in 50 mM Tris-HCl pH=8.0, 0.1% BSA and added to each well. The reaction was incubated for one hour at 30° C. in the presence of a test compound. […] The plate was read on a scintillation counter to determine ^33P-γ-ATP incorporated into the immobilized peptide substrate. […] A maximum and minimum signal for the assay was determined on each plate. […]

T2 sequence (P06213 980-1352): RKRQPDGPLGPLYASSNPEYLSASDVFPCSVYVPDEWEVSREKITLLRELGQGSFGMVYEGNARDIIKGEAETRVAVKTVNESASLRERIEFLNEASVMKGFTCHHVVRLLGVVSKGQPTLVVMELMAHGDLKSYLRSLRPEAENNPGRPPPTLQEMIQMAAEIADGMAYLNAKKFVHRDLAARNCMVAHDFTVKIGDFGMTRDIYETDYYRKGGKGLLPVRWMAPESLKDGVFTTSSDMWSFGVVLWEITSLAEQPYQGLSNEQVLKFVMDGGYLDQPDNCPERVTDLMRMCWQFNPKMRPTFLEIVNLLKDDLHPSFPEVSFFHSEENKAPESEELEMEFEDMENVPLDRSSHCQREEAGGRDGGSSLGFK
T1 sequence (P06493 whole entry): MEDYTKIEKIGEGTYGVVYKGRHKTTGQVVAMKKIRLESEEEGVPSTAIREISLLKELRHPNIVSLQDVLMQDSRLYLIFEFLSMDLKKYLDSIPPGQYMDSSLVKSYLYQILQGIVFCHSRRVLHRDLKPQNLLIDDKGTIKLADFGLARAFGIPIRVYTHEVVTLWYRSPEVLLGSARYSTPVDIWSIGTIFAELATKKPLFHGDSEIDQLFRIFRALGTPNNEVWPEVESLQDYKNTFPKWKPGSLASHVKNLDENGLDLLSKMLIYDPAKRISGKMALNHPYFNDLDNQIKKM
T1 sequence (P14635 whole entry partner): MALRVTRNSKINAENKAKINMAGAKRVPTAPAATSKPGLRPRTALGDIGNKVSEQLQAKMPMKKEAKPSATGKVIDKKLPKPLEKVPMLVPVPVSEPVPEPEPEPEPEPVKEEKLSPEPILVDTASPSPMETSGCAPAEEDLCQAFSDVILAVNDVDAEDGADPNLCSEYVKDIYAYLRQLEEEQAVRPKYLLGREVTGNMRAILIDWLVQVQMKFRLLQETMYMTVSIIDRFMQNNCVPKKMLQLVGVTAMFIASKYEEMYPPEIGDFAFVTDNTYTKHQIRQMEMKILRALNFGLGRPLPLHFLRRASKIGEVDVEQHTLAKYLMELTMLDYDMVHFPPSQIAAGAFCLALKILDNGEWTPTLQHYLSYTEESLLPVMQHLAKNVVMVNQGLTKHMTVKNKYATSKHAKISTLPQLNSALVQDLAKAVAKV

Row | Structure (SMILES) | IC50 [1] [nM] | IC50 [2] [nM]
1 | OCCCNc1cc(-c2ncnc(Nc3cccc(Cl)c3)n2)ccn1 [Compound 2, 3-((4-(4-((3-chlorophenyl)amino)-1,3,5-triazin-2-yl)-2-pyridinyl)amino)-1-propanol] | 16 | > 10000
2 | OCCCNc1cncc(-c2ncnc(Nc3cccc(Cl)c3)n2)c1 [Compound 1, 3-((5-(4-((3-chlorophenyl)amino)-1,3,5-triazin-2-yl)-3-pyridinyl)amino)-1-propanol] | 39 | 18200
